Source: patent US11155517B2, “4-substituted phenylamine derivatives and their use to protect crops by fighting undesired phytopathogenic micoorganisms” (PI INDUSTRIES LTD., priority 2016, dated 2021)

What was measured:
Colletotrichum capsici = Colletotrichum capsici (anthracnose) in vitro test, radial growth on Potato Dextrose Agar; type: cell-based; settings: Colletotrichum truncatum, 168 h; 300 ppm; seven days, 25° C.; read-out: % control compared to the untreated check (radial growth)
Alternaria solani [1] = assay: Greenhouse Alternaria solani test in tomato, preventive; type: in vivo; settings: 24 h, tomato plants sprayed one day before inoculation, read-out: Efficacy (% control), disease severity vs untreated check
Experimental: Compounds were dissolved in 2% DMSO/Acetone & then mixed with water to calibrated spray volume of 50 ml. This 50 ml spray solution was poured into the spray bottles for further applications. To test the preventive activity of compounds, healthy young Tomato plants raised in the greenhouse were sprayed with active compound preparation at the stated application rates inside the spray cabinets using hallowcone nozzles. One day after treatment, the plants were inoculated with spore suspension (2% Malt) containing 0.24×10^6 Alternaria solani inoculum. The inoculated plants were then kept in greenhouse chamber at 22-24° C. temperature and 90-95% relative humidity for disease expression. […] Efficacy (% control) of the compounds was calculated by comparing the disease rating in the treatment with untreated control. The sprayed plants were also assessed for compound's phytotoxic effects by recording symptoms like necrosis, chlorosis and stunting.

Rhizoctonia solani = Rhizoctonia solani (rice sheath blight/potato black scurf) in vitro test, radial growth on Potato Dextrose Agar; type: cell-based; settings: 168 h, 300 ppm, seven days, 25° C., read-out: % control compared to the untreated check (radial growth)
Botrytis cinerea = Botrytis cinerea (gray mold) in vitro test, radial growth on Potato Dextrose Agar; type: cell-based; settings: 168 h, 300 ppm, seven days, 22° C., read-out: % (control) compared to the untreated check (radial growth)
Fusarium culmorum [2] = assay: Greenhouse Fusarium culmorum test in wheat, preventive; type: in vivo; settings: 24 h, read-out: Efficacy (% control), disease severity vs untreated check
Experimental: Compounds were dissolved in 2% DMSO/Acetone & then mixed with water to calibrated spray volume of 50 ml. This 50 ml spray solution was poured into the spray bottles for further applications.
To test the preventive activity of compounds, healthy young wheat plants raised in the greenhouse were sprayed with active compound preparation at the stated application rates inside the spray cabinets using hallowcone nozzles. One day after treatment, the plants were inoculated with spore suspension (2% Malt) containing 2×10^6 Fusarium culmorum inoculum. The inoculated plants were then kept in greenhouse chamber at 24° C. temperature and 80-90% relative humidity for disease expression.
A visual assessment of compound's performance was carried by rating the disease severity (0-100% scale) on treated plants on 3, 7, 10 and 15 days after application. Efficacy (% control) of the compounds was calculated by comparing the disease rating in the treatment with untreated control. The sprayed plants were also assessed for compound's phytotoxic effects by recording symptoms like necrosis, chlorosis and stunting.

Pyricularia oryzae [3] = assay: microbe, parasite or virus in culture; type: cell-based; settings: 168 h, read-out: % control compared to the untreated check (radial growth)
Septoria lycopersici = Septoria lycopersici (leaf spot of tomato) in vitro test, radial growth on Potato Dextrose Agar; type: cell-based; settings: 168 h, seven days, 25° C., read-out: % control compared to the untreated check (radial growth)
Fusarium culmorum [4] = assay: Fusarium culmorum (foot rot of cereals) in vitro test, radial growth on Potato Dextrose Agar; type: cell-based; settings: Fusarium culmorum, 168 h, read-out: % control compared to the untreated check (radial growth)
Alternaria solani [5] = assay: Alternaria solani (early blight of tomato/potato) in vitro test, radial growth on Potato Dextrose Agar; type: cell-based; settings: 168 h, 300 ppm, seven days, 25° C., read-out: % control compared to the untreated check (radial growth)
Botrytis cinera = assay: Greenhouse Botrytis cinera test in tomato, preventive; type: in vivo; settings: 24 h, plants sprayed one day before inoculation, read-out: Efficacy (% control), disease severity vs untreated check
Pyricularia oryzae [6] = assay: whole plant or invertebrate; type: in vivo; settings: 24 h, read-out: Efficacy (% control), disease severity vs untreated check

SMILES	inhibition of growth at 300 ppm (Colletotrichum capsici) [%]	pest or weed control at 500 ppm (Alternaria solani [1]) [%]	inhibition of growth at 300 ppm (Rhizoctonia solani) [%]	inhibition of growth at 300 ppm (Botrytis cinerea) [%]	pest or weed control at 500 ppm (Fusarium culmorum [2]) [%]	inhibition of growth at 300 ppm (Pyricularia oryzae [3]) [%]	inhibition of growth at 300 ppm (Septoria lycopersici) [%]	inhibition of growth at 300 ppm (Fusarium culmorum [4]) [%]	inhibition of growth at 300 ppm (Alternaria solani [5]) [%]	pest or weed control at 500 ppm (Botrytis cinera) [%]	pest or weed control at 500 ppm (Pyricularia oryzae [6]) [%]
CNC=Nc1cc(C)c(Cc2cccc(F)c2)cc1Cl [Compound 42, N′-(2-chloro-4-(3-fluorobenzyl)-5-methylphenyl)-N-methylformimidamide]	> 80	70 to 100	> 80	> 80	70 to 100	> 75	> 70	75	> 75		
CCN(C)C=Nc1cc(C)c(Cc2cccc(Br)c2F)cc1C [Compound 27, N′-(4-(3-bromo-2-fluorobenzyl)-2,5-dimethylphenyl)-N-ethyl-N-methylformimidamide]	> 80	70 to 100	> 80	> 80		> 75	> 70	75	> 75	70 to 100	
Cc1cc(N=CN2CCCCC2)c(C)cc1Cc1ccc(F)c(Cl)c1 [Compound 35, N-(4-(3-chloro-4-fluorobenzyl)-2,5-dimethylphenyl)-1-(piperidin-1-yl)methanimine]	> 80	70 to 100	> 80	> 80	70 to 100	> 75	> 70		> 75		
CNC=Nc1cc(C)c(Cc2cccc(Br)c2F)cc1C [Compound 41, N′-(4-(3-bromo-2-fluorobenzyl)-2,5-dimethylphenyl)-N-methylformimidamide]	> 80	70 to 100	> 80	> 80	70 to 100	> 75	> 70	75	> 75		
CCN(C)C=Nc1cc(C)c(/C(=N\C)c2ccccc2)cc1C [Compound 31, N′-(2,5-dimethyl-4-((Z)-(methylimino)(phenyl)methyl)phenyl)-N-ethyl-N-methylformimidamide]		70 to 100	> 80			> 75	> 70	75	> 75	70 to 100	
CCN(C)C=Nc1cc(C)c(Cc2cc(Cl)ccc2Cl)cc1C [Compound 160, N′-(4-(2,5-dichlorobenzyl)-2,5-dimethylphenyl)-N-ethyl-N-methylformimidamide]	> 80	70 to 100	> 80	> 80	70 to 100	> 75	> 70	75	> 75		
CCN(C)C=Nc1cc(C)c(Cc2cc(F)cc(Cl)c2)cc1C [Compound 135, N′-(4-(3-chloro-5-fluorobenzyl)-2,5-dimethylphenyl)-N-ethyl-N-methylformimidamide]	> 80		> 80	> 80		> 75	> 70		> 75		70 to 100
CCN(C)C=Nc1cc(C)c(Cc2ccc(Cl)c(C)c2)cc1Cl [Compound 120, N′-(2-chloro-4-(4-chloro-3-methylbenzyl)-5-methylphenyl)-N-ethyl-N-methylformimidamide]	> 80		> 80	> 80		> 75		75	> 75		70 to 100
CCN(C)C=Nc1cc(C)c(Cc2ccccc2C)cc1C [Compound 32, N′-(2,5-dimethyl-4-(2-methylbenzyl)phenyl)-N-ethyl-N-methylformimidamide]	> 80	70 to 100	> 80	> 80	70 to 100	> 75	> 70	75	> 75	70 to 100	
CCN(C)C=Nc1cc(C)c(Cc2ccccc2SC)cc1C [Compound 23, N′-(2,5-dimethyl-4-(2-(methylthio)benzyl)phenyl)-N-ethyl-N-methylformimidamide]	> 80	70 to 100	> 80	> 80	70 to 100	> 75	> 70	75	> 75	70 to 100	
CCN(C)C=Nc1cc(C)c(Cc2ccc(C)cc2)cc1C [Compound 9, N′-(2,5-dimethyl-4-(4-methylbenzyl)phenyl)-N-ethyl-N-methylformimidamide]	> 80	70 to 100	> 80	> 80		> 75	> 70	75	> 75	70 to 100	
CCN(C)C=Nc1cc(C)c(Cc2ccc(F)cc2F)cc1Cl [Compound 180, N′-(2-chloro-4-(2,4-difluorobenzyl)-5-methylphenyl)-N-ethyl-N-methylformimidamide]	> 80	70 to 100	> 80	> 80		> 75		75	> 75	70 to 100	
CCN(C)C=Nc1cc(Cl)c(Cc2cccc(F)c2)cc1Cl [Compound 148, N′-(2,5-dichloro-4-(3-fluorobenzyl)phenyl)-N-ethyl-N-methylformimidamide]						> 75			> 75		70 to 100
CCN(C)C=Nc1cc(C)c(Cc2cccc(F)c2)cc1C [Compound 29, N-ethyl-N′-(4-(3-fluorobenzyl)-2,5-dimethylphenyl)-N-methylformimidamide]	> 80	70 to 100	> 80	> 80		> 75	> 70	75	> 75	70 to 100	
CCN(C)C=Nc1cc(C)c(Cc2cccc(C)c2C)cc1C [Compound 112, N′-(4-(2,3-dimethylbenzyl)-2,5-dimethylphenyl)-N-ethyl-N-methylformimidamide]	> 80		> 80			> 75	> 70	75	> 75		70 to 100
